According to PMC7356390, “Dehydrozingerone, a Curcumin Analog, as a Potential Anti-Prostate Cancer Inhibitor In Vitro and In Vivo” (Molecules, 2020):
Read-outs that look alike come from different tables or passages of the source.

Assays:
[1] = In vivo pharmacokinetics and tissue distribution (HPLC); set-up: species or system male BALB/c mice; settings: for concentration at 30 min: 30 min after 100 mg/kg i.p.; for concentration at 60 min: 60 min after 100 mg/kg i.p.; for Tmax: serum, ip, read-out: time to maximum serum concentration after i.p. administration
Protocol: Figure 5 Levels of serum Cur and DZG recorded in mice after receiving a single dose of Cur or DZG (100 mg/kg body weight) by intraperitoneal (i.p.) injection. Serum concentrations of Cur and DZG were determined by high-performance liquid chromatography (HPLC) using a reversed-phase C18 column (Waters). The mobile phase values were 52% acetonitrile and 48% citric buffer. Each point represents the mean ± S.E. of three or four mice.
A comparison of the pharmacokinetics between Cur and DZG was determined using seven-week-old male BALB/c mice. The designated 32 mice were randomly divided into 3 groups, identified as the control, Cur and DZG groups. Mice were i.p. injected with 50% DMSO in NSS (vehicle control), Cur or DZG at concentrations of 100 mg/kg of body weight for each mouse. The mice were euthanized, and blood from each mouse was collected at 0, 30, 60 and 180 min after injection. Lungs, liver and kidneys were removed and frozen for detection of the levels of concentrations of Cur and DZG.
The concentrations of Cur or DZG in the serum or organ tissues were determined using the HPLC method. The tissues were homogenized in 200 μl of 50% acetonitrile and vortexed for 5 min. Samples were centrifuged at 96.5 g at 4°C for 20 min. Fifty microliters of serum or tissue homogenate was mixed with 1.5-mg/mL trichloroacetic acid in 100 µl of acetonitrile. The substance was then centrifuged at 96.5 g at 4°C for 20 min. Sixty microliters of the supernatant was collected and subjected to HPLC using a reversed-phase C18 column (Waters Corporation, Milford, MA, USA). The mobile phase was composed of 52% acetonitrile and 48% citric buffer (1% w/v citric acid, pH 3.0), and the flow rate was set at 1 mL/min. The detection wavelength for Cur and DZG were 425 and 340 nm, respectively. Concentrations of Cur and DZG in the serum were calculated and compared to the standard curve (0–3200 ng/mL). The limits of quantification for Cur and DZG were 100 and 50 ng/mL, respectively. The extraction recovery from the plasma was approximately 90% for both Cur and DZG.

PLS10 cells = assay: WST-1 cell viability assay; assay type: cell-based; settings: Rattus norvegicus; 48 h, WST-1 assay, mean ± S.D.; read-out: IC50, cell proliferation of PLS10 cells
Protocol: Figure 2 Cytotoxicity of Cur (a) and DZG (b) on PLS10 cells. Cells were treated with Cur (0–50 μM) or DZG (0–200 µM) and incubated for 48 h. Cell viability was measured by WST-1 assay. Data are represented as mean ± S.D. of three independent experiments. * p < 0.05, ** p < 0.01 and *** p < 0.001 vs. control (one-way ANOVA, Dunnett’s multiple comparisons test, tested groups vs. control group). PLS10 cells (2.0 × 10^3 cells per well) were plated in a 96-well plate for 24 h. Cur and DZG were dissolved in DMSO and diluted to the final concentration in the culture medium. After that, the culture medium containing Cur (0–50 µM) or DZG (0–200 µM) in 0.5% DMSO (vehicle control) were added into the cells. The cells were incubated in 5% CO2 at 37°C for a further 48 h, and cell viability was determined using the WST-1 colorimetric assay (Roche Diagnostics, Mannheim, Germany). In each experiment, determinations were carried out in triplicate.

PLS10 cells xenograft = assay: In vivo antitumor activity, PLS10 cells xenograft model; set-up: species or system male BALB/c-nu/nu mice; settings: for Body Weights at the end of the experiment / Organ Weights, Kidneys / Organ Weights, Livers: mean ± S.E.; for Ki67-labeling index in tumor sections: control 63; for tumor volume: control 96 cm^3; for CD31-positive areas in tumors (angiogenesis): vs control, p < 0.05; for survival percentage of nude mice: male, BALB/c-nu/nu, mouse, in vivo, 5 weeks
Protocol: Figure 4 DZG inhibited cell proliferation and angiogenesis in vivo using PLS10 cells xenograft model. Mice were subcutaneously injected with PLS10 cells and treated two times per week with Cur or DZG (30 mg/kg body weight) for a period of 5 weeks. Tumor volume was measured twice a week and at the end of the study (a). The tumor masses were collected, sectioned and analyzed by immunohistochemistry to detect the Ki67-labeling index (b), % TUNEL (Terminal deoxynucleotidyl transferase dUTP nick end labeling)-positive cells (c) and % of the vessel area (d). Data presented in bar diagrams represent the mean ± S.E of eight mice in the control and nine mice in the treatment groups. ** p < 0.01 vs. control (one-way ANOVA, Dunnett’s multiple comparisons test, tested groups vs. control group).
The in vivo antitumor activity of DZG or Cur was examined using five-week-old male BALB/c-nu/nu mice. Mice were randomly divided into 3 groups, with up to 8 or 9 mice per group. The PLS10 cells (5.0 × 10^5) were subcutaneously injected into each mouse. The treatments were initiated 2 days after PLS10 cells injections, at which point, mice received 50% DMSO in normal saline solution (NSS) (vehicle control) at 30 mg/kg body weight of Cur or DZG via i.p. injection two times a week for five weeks. The body weight of each mouse was measured twice a week during the experiment. At week 5 of the experiment, mice were euthanized, and primary tumors and organs, such as lungs, liver, kidneys and lymph nodes, were removed and fixed in 10% buffered formalin. The tumor volume of each mouse was measured and calculated according to the following formulation: 0.52 × (axis1 × axis2 × axis3). A section of the primary tumor, lung, liver, and kidney specimens were collected and fixed in 10% buffered formalin. Tissue sections of the primary tumors and organs were stained with H&E.
The paraffin-embedded samples were sectioned and stained with rabbit monoclonal anti-Ki67 (SP6; Acris Antibodies GmbH, Herford, Germany) and rabbit polyclonal anti-CD31 antibodies (Abcam, Cambridge, UK) and sequentially stained with an anti-rabbit secondary antibody and avidin-biotin complex. The binding complexes were then visualized with diamino-benzidine. Subsequently, the sections were then counterstained lightly with hematoxylin for microscopic examination. The number of Ki67-staining cells for a minimum of 1000 cells was counted to determine the labeling index. For quantitative analysis of the vessel area, CD31-positive areas per the total area section were determined under microscopy (BZ-9000).
The paraffin-embedded samples were sectioned, and the degree of apoptosis in the tumor tissue was determined using a TUNEL assay (In situ Apoptosis Detection Kit; Takara Bio Inc., Ohtsu, Japan). The TUNEL assay was performed according to the manufacturer’s instructions. The number of TUNEL-labeled cells in a minimum of 1000 cells was counted in order to establish the labeling index.

HT-29 cells = test system: HT-29 cells; set-up: method as in PMID 23245566; settings: cited from earlier work
[2] = male, BALB/c, mouse, kidney, intraperitoneal, 100 mg/kg body weight, mean ± S.E., read-out: tissue concentration, Kidneys
[3] = male, BALB/c, mouse, liver, intraperitoneal, 100 mg/kg body weight, mean ± S.E., read-out: tissue concentration, Liver
[4] = male, BALB/c, mouse, lung, intraperitoneal, 100 mg/kg body weight, mean ± S.E., read-out: tissue concentration, Lung
[5] = male, BALB/c, mouse, single dose 100 mg/kg i.p., mice
[6] = single dose 100 mg/kg i.p., mice
[7] = 30 mg/kg i.p. two times a week for five weeks

| Compound | concentration at 30 min [1, 2] [ng/g] | concentration at 60 min [1, 2] [ng/g] | concentration at 30 min [1, 3] [ng/g] | concentration at 30 min [1, 4] [ng/g] | Tmax [1, 5] [min] | maximum serum concentration [1, 6] [µg/mL] | time at detectable concentrations in the serum after i.p. injection [1, 6] | IC50 (PLS10 cells) [µM] | Body Weights at the end of the experiment (PLS10 cells xenograft; [7]) | Organ Weights, Kidneys (PLS10 cells xenograft; [7]) | Organ Weights, Livers (PLS10 cells xenograft; [7]) | Ki67-labeling index in tumor sections (PLS10 cells xenograft; [7]) [%] | tumor volume (PLS10 cells xenograft; [7]) [cm^3] | CD31-positive areas in tumors (angiogenesis) (PLS10 cells xenograft; [7]) | survival percentage of nude mice (PLS10 cells xenograft) [%] | other results |
| --- | --- | --- | --- | --- | --- | --- | --- | --- | --- | --- | --- | --- | --- | --- | --- | --- |
| COc1cc(/C=C/C(=O)CC(=O)/C=C/c2ccc(O)c(OC)c2)ccc1O [Cur, Curcumin] | 1010 ± 550 | 530 ± 190 | 2600 ± 780 | 1150 ± 1300 | ≤ 30 | 2.28 ± 2.42 | ≤ 1 h | 20.3 ± 0.58 | 26.71 ± 1.26 | 0.40 ± 0.03 | 1.67 ± 0.10 | 62 | 38 | significantly reduced | 100 | – |
| COc1cc(/C=C/C(C)=O)ccc1O [DZG, (E)-4-(4-hydroxy-3-methoxyphenyl)-but-3-en-2-one] | 5920 ± 3800 | 9750 ± 4080 | 920 ± 670 | 1410 ± 740 | ≤ 30 | 4.87 ± 2.74 | up to 3 h | 153 ± 11.8 | 27.12 ± 1.00 | 0.39 ± 0.03 | 1.60 ± 0.09 | 59 | 24 | significantly reduced | 100 | concentration at 180 min ([1]; male, BALB/c, mouse, kidney, intraperitoneal, 100 mg/kg body weight, 180 min after 100 mg/kg i.p., mean ± S.E., read-out: tissue concentration, Kidneys): 860 ± 220 ng/g; concentration at 60 min [1, 3]: 410 ± 110 ng/g; concentration at 60 min [1, 4]: 720 ± 280 ng/g; time of highest concentration in the kidneys after injection [1, 6]: 1 h; concentration range that suppressed proliferation of HT-29 cells (G2/M arrest) (HT-29 cells): 250 to 500 µM; apoptotic cells (TUNEL-positive) in tumor sections (PLS10 cells xenograft; 30 mg/kg i.p. two times a week for five weeks, control 7%): 10% |
